# Experimental data published in US11051515B2, “3-acyl-benzamides and their use as herbicides” (Bayer Aktiengesellschaft, priority 2017, dated 2021).
# Key:
# POLCO [1] = experiment: Post-emergence action against POLCO; format: in vivo, Polygonum convolvulus; conditions: Fallopia convolvulus, 504 h; post-emergence, dosage 80 g/ha
# Procedure, shortened: (§1)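 Weeds grown in sandy loam in greenhouse, treated at one-leaf stage (2–3 weeks after sowing) with WP or EC formulations sprayed as aqueous suspension/emulsion at 600 to […] water with 0.2% wetting agent. Visual rating after about 3 weeks versus untreated controls, as % herbicidal action (100% = plants dead, 0% = like control).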
# ECHCG [2] = experiment: Post-emergence action against ECHCG; format: in vivo, Echinochloa crus-galli; conditions: post-emergence, dosage 80 g/ha, visual assessment about 3 weeks after treatment vs untreated controls
# Procedure, shortened: as §1
# ECHCG [3] = experiment: Pre-emergence action against ECHCG; format: in vivo, Echinochloa crus-galli; conditions: pre-emergence, dosage 320 g/ha, scored visually after 3 weeks vs untreated controls
# Procedure, shortened: (§2)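 Seeds sown in sandy loam in wood-fiber pots and covered with soil. Greenhouse growth; visual damage scored after 3 weeks versus untreated controls (100% = dead, 0% = like control).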
# ABUTH [4] = experiment: Post-emergence action against ABUTH; format: in vivo, Abutilon theophrasti; conditions: post-emergence, dosage 80 g/ha, visual assessment about 3 weeks after treatment vs untreated controls
# Procedure, shortened: as §1
# VERPE [5] = experiment: Post-emergence action against VERPE; format: in vivo, Veronica persica; conditions: dosage 80 g/ha
# Procedure, shortened: as §1
# AVEFA [6] = experiment: Pre-emergence action against AVEFA; format: in vivo, Avena fatua; conditions: dosage 320 g/ha, scored visually after 3 weeks vs untreated controls
# Procedure, shortened: as §2
# PHBPU [7] = experiment: Pre-emergence action against PHBPU; format: in vivo, Pharbitis purpurea; conditions: Ipomoea purpurea, 504 h; Dosage 320 g/ha, pre-emergence
# Procedure, shortened: as §2
# MATIN [8] = experiment: Pre-emergence action against MATIN; format: in vivo, Matricaria inodora; conditions: Dosage 320 g/ha, pre-emergence
# Procedure, shortened: as §2
# PHBPU [9] = experiment: Post-emergence action against PHBPU; format: in vivo, Pharbitis purpurea; conditions: post-emergence, dosage 80 g/ha
# Procedure, shortened: as §1
# LOLMU [10] = experiment: Post-emergence action against LOLMU; format: in vivo, Lolium multiflorum; conditions: dosage 80 g/ha, visual assessment about 3 weeks after treatment vs untreated controls
# Protocol: Seeds of monocotyledonous and dicotyledonous weed and crop plants are laid out in sandy loam soil in wood-fiber pots, covered with soil and cultivated in a greenhouse under good growth conditions. 2 to 3 weeks after sowing, the test plants are treated at the one-leaf stage. The compounds of the invention, formulated in the form of wettable powders (WP) or as emulsion concentrates (EC), are then sprayed onto the green parts of the plants in the form of an aqueous suspension or emulsion at a water application rate equating to […], with addition of 0.2% wetting agent. After the test plants have been left to stand in the greenhouse under optimal growth conditions for about 3 weeks, the action of the preparations is assessed visually in comparison to untreated controls (herbicidal action in percent (%): 100% activity=the plants have died, 0% activity=like control plants). […] At the same time, inventive compounds leave Gramineae crops such as barley, wheat, rye, millet/Sorghum, corn or rice virtually undamaged when applied post-emergence, even at high active ingredient dosages. In addition, some substances are also harmless to dicotyledonous crops such as soya, cotton, oilseed rape, sugar beet or potatoes. Some of the compounds according to the invention have high selectivity and are therefore suitable for controlling unwanted vegetation in agricultural crops by the post-emergence method. The data of Tables B18 to B34 below illustrate, in an exemplary manner, the […] herbicidal action of the compounds according to the invention, the herbicidal activity being stated in percent.
# ALOMY [11] = experiment: Post-emergence action against ALOMY; format: in vivo, Alopecurus myosuroides; conditions: Alopecurus myosuroides, 504 h; Dosage 80 g/ha, post-emergence
# Procedure, shortened: as §1
# VERPE [12] = experiment: Pre-emergence action against VERPE; format: in vivo, Veronica persica; conditions: Dosage 320 g/ha, pre-emergence
# Procedure, shortened: as §2
# CYPES [13] = experiment: Pre-emergence action against CYPES; format: in vivo, Cyperus esculentus; conditions: pre-emergence, dosage 320 g/ha, scored visually after 3 weeks vs untreated controls
# Procedure, shortened: as §2
# AVEFA [14] = experiment: Post-emergence action against AVEFA; format: in vivo, Avena fatua; conditions: Avena fatua, 504 h; post-emergence, dosage 80 g/ha, visual assessment about 3 weeks after treatment vs untreated controls; read-out: Post-emergence action against AVEFA (herbicidal action in percent)
# Procedure, shortened: as §1
# ABUTH [15] = experiment: Pre-emergence action against ABUTH; format: in vivo, Abutilon theophrasti; conditions: pre-emergence, dosage 320 g/ha, scored visually after 3 weeks vs untreated controls
# Procedure, shortened: as §2
# AMARE [16] = experiment: Post-emergence action against AMARE; format: in vivo, Amaranthus retroflexus; conditions: post-emergence, dosage 80 g/ha, visual assessment about 3 weeks after treatment vs untreated controls
# Procedure, shortened: as §1
# VIOTR [17] = experiment: Pre-emergence action against VIOTR; format: in vivo, Viola tricolor; conditions: Dosage 320 g/ha, pre-emergence
# Procedure, shortened: as §2
# STEME [18] = experiment: Post-emergence action against STEME; format: in vivo, Stellaria media; conditions: post-emergence, dosage 80 g/ha
# Procedure, shortened: as §1
# CYPES [19] = experiment: Post-emergence action against CYPES; format: in vivo, Cyperus esculentus; conditions: post-emergence, dosage 80 g/ha, visual assessment about 3 weeks after treatment vs untreated controls
# Procedure, shortened: as §1
# AMARE [20] = experiment: Pre-emergence action against AMARE; format: in vivo, Amaranthus retroflexus; conditions: pre-emergence, dosage 320 g/ha, scored visually after 3 weeks vs untreated controls
# Procedure, shortened: as §2
# SETVI [21] = experiment: Post-emergence action against SETVI; format: in vivo, Setaria viridis; conditions: post-emergence, dosage 80 g/ha, visual assessment about 3 weeks after treatment vs untreated controls
# Procedure, shortened: as §1
# ALOMY [22] = experiment: Pre-emergence action against ALOMY; format: in vivo, Alopecurus myosuroides; conditions: dosage 320 g/ha, pre-emergence, scored visually after 3 weeks vs untreated controls, 100% = plants have died, 0% = like control plants
# Procedure, shortened: as §2
# VIOTR [23] = experiment: Post-emergence action against VIOTR; format: in vivo, Viola tricolor; conditions: post-emergence, dosage 80 g/ha
# Procedure, shortened: as §1
# MATIN [24] = experiment: Post-emergence action against MATIN; format: in vivo, Matricaria inodora; conditions: post-emergence, dosage 80 g/ha, visual assessment about 3 weeks after treatment vs untreated controls
# Procedure, shortened: as §1
# SETVI [25] = experiment: Pre-emergence action against SETVI; format: in vivo, Setaria viridis; conditions: pre-emergence, dosage 320 g/ha, scored visually after 3 weeks vs untreated controls
# Procedure, shortened: as §2
# LOLMU [26] = experiment: Pre-emergence action against LOLMU; format: in vivo, Lolium multiflorum; conditions: dosage 320 g/ha, scored visually after 3 weeks vs untreated controls
# Procedure, shortened: as §2
# STEME [27] = experiment: Pre-emergence action against STEME; format: in vivo, Stellaria media; conditions: Dosage 320 g/ha, pre-emergence
# Procedure, shortened: as §2
# POLCO [28] = experiment: Pre-emergence action against POLCO; format: in vivo, Polygonum convolvulus; conditions: Dosage 320 g/ha, pre-emergence
# Procedure, shortened: as §2
compound,measurement,setting,value
CCC(=O)c1c(C(F)(F)F)ccc(C(=O)Nc2nnnn2C)c1Cl [1-138],pest or weed control at 80 g/ha,POLCO [1],80%
same,pest or weed control at 80 g/ha,"ECHCG [2]; Echinochloa crus-galli, 504 h, read-out: Post-emergence action against ECHCG (herbicidal action in percent)",90%
same,pest or weed control at 320 g/ha,"ECHCG [3]; Echinochloa crus-galli, 504 h, read-out: Pre-emergence action against ECHCG (herbicidal activity)",100%
same,pest or weed control at 80 g/ha,"ABUTH [4]; Abutilon theophrasti, 504 h, read-out: Post-emergence action against ABUTH (herbicidal action in percent)",80%
same,pest or weed control at 80 g/ha,"VERPE [5]; Veronica persica, 504 h",90%
same,pest or weed control at 320 g/ha,"AVEFA [6]; Avena fatua, 504 h, read-out: Pre-emergence action against AVEFA (herbicidal activity)",100%
same,pest or weed control at 320 g/ha,PHBPU [7],90%
same,pest or weed control at 320 g/ha,"MATIN [8]; Tripleurospermum inodorum, 504 h",100%
same,pest or weed control at 80 g/ha,"PHBPU [9]; Ipomoea purpurea, 504 h",100%
same,pest or weed control at 80 g/ha,"LOLMU [10]; Lolium multiflorum, 504 h, read-out: Post-emergence action against LOLMU (herbicidal action in percent)",100%
same,pest or weed control at 80 g/ha,ALOMY [11],100%
same,pest or weed control at 320 g/ha,"VERPE [12]; Veronica persica, 504 h",100%
same,pest or weed control at 320 g/ha,"CYPES [13]; Cyperus esculentus, 504 h, read-out: Pre-emergence action against CYPES (herbicidal activity)",100%
same,pest or weed control at 80 g/ha,AVEFA [14],100%
same,pest or weed control at 320 g/ha,"ABUTH [15]; Abutilon theophrasti, 504 h, read-out: Pre-emergence action against ABUTH (herbicidal activity)",100%
same,pest or weed control at 80 g/ha,"AMARE [16]; Amaranthus retroflexus, 504 h, read-out: Post-emergence action against AMARE (herbicidal action in percent)",80%
same,pest or weed control at 320 g/ha,"VIOTR [17]; Viola tricolor, 504 h",100%
same,pest or weed control at 80 g/ha,"STEME [18]; Stellaria media, 504 h",100%
same,pest or weed control at 80 g/ha,"CYPES [19]; Cyperus esculentus, 504 h, read-out: Post-emergence action against CYPES (herbicidal action in percent)",90%
same,pest or weed control at 320 g/ha,"AMARE [20]; Amaranthus retroflexus, 504 h, read-out: Pre-emergence action against AMARE (herbicidal activity)",100%
same,pest or weed control at 80 g/ha,"SETVI [21]; Setaria viridis, 504 h, read-out: Post-emergence action against SETVI (herbicidal action in percent)",90%
same,pest or weed control at 320 g/ha,"ALOMY [22]; Alopecurus myosuroides, 504 h, read-out: Pre-emergence action against ALOMY (herbicidal activity in percent)",100%
same,pest or weed control at 80 g/ha,"VIOTR [23]; Viola tricolor, 504 h",100%
same,pest or weed control at 80 g/ha,"MATIN [24]; Tripleurospermum inodorum, 504 h, read-out: Post-emergence action against MATIN (herbicidal action in percent)",100%
same,pest or weed control at 320 g/ha,"SETVI [25]; Setaria viridis, 504 h, read-out: SETVI (Table B8, pre-emergence herbicidal activity)",100%
CCn1nnnc1NC(=O)c1ccc(C(F)(F)F)c(C(C)=O)c1C [2-14],Post-emergence action against ECHCG (herbicidal action in percent),ECHCG [2],100%
same,Pre-emergence action against ECHCG (herbicidal activity),ECHCG [3],100%
same,Post-emergence action against ABUTH (herbicidal action in percent),ABUTH [4],100%
same,Post-emergence action against VERPE,VERPE [5],80
same,Pre-emergence action against AVEFA (herbicidal activity),AVEFA [6],90%
same,Pre-emergence action against MATIN,MATIN [8],100%
same,Post-emergence action against PHBPU,PHBPU [9],90
same,Post-emergence action against LOLMU (herbicidal action in percent),LOLMU [10],80%
same,Pre-emergence action against LOLMU (herbicidal activity),LOLMU [26],80%
same,Pre-emergence action against VERPE,VERPE [12],100%
same,Pre-emergence action against CYPES (herbicidal activity),CYPES [13],90%
same,Pre-emergence action against ABUTH (herbicidal activity),ABUTH [15],100%
same,Post-emergence action against AMARE (herbicidal action in percent),AMARE [16],100%
same,Pre-emergence action against STEME,STEME [27],100%
same,Pre-emergence action against VIOTR,VIOTR [17],100%
same,Post-emergence action against STEME,STEME [18],100
same,Post-emergence action against CYPES (herbicidal action in percent),CYPES [19],90%
same,Pre-emergence action against AMARE (herbicidal activity),AMARE [20],100%
same,Post-emergence action against SETVI (herbicidal action in percent),SETVI [21],90%
same,Pre-emergence action against ALOMY (herbicidal activity in percent),ALOMY [22],80%
same,Post-emergence action against VIOTR,VIOTR [23],100
same,Pre-emergence action against POLCO,POLCO [28],80%
same,Post-emergence action against MATIN (herbicidal action in percent),MATIN [24],100%
same,"SETVI (Table B8, pre-emergence herbicidal activity)",SETVI [25],100%
